Assays:
Assay in all cases: two-electrode voltage clamp, Xenopus oocytes
[1] = tested on: T1, Dm-DopC1; format: cell-based, Daphnia magna; conditions: antagonist against 50 µM dopamine; ND96 pH 7.5, -60 mV; 4-parameter fit, bottom = 0
T1 construct: full-length homomeric pentamer expressed from cRNA in Xenopus laevis oocytes; predicted signal peptide residues 1-26

[2] = target: T2, Dm-DopC1 (Daphnia magna, UniProt Z9WC39ES65, D188N); format: cell-based
T2 construct: full-length homomeric pentamer expressed from cRNA in Xenopus laevis oocytes; predicted signal peptide residues 1-26
T2 sequence (Z9WC39ES65 27-520 D188N limits assumed): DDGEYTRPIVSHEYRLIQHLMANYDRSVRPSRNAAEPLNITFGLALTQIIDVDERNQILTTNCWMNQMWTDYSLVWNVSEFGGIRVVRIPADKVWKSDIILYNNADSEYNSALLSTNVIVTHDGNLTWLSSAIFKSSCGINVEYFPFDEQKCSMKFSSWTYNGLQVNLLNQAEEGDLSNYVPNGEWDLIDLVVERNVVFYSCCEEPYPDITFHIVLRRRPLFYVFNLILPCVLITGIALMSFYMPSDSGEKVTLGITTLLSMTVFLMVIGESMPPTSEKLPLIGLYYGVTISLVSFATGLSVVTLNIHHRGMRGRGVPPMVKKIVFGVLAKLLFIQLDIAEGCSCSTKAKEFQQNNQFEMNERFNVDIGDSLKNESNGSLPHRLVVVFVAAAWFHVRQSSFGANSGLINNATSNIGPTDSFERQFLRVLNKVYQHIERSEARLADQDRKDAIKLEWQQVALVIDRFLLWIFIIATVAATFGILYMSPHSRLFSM

[3] = target: T3, Dm-DopC1 (Daphnia magna, UniProt Z9WC39ES65, N92T); format: cell-based
T3 construct: full-length homomeric pentamer expressed from cRNA in Xenopus laevis oocytes; predicted signal peptide residues 1-26
T3 sequence (Z9WC39ES65 27-520 N92T limits assumed): as the sequence (Z9WC39ES65 27-520 D188N limits assumed) above, with N66T, N162D counted along it
From the text: two-electrode voltage clamp, Xenopus oocytes on Dm-DopC1

Row | Compound | IC50 [1] [µM] | further results
1 | CN1CCc2cccc3c2[C@H]1Cc1ccc(O)c(O)c1-3 [apomorphine] | 6 | –
2 | NCCc1ccc(O)c(O)c1 [dopamine] | – | EC50 [2]: > 9000 µM
3 | CN1CCC[C@H]1c1cccnc1 [nicotine] | 109 | –
4 | NC[C@H](O)c1ccc(O)c(O)c1 [norepinephrine] | – | EC50 [3]: 440 ± 114 µM
5 | COc1cc2c3cc1Oc1cc(ccc1O)C[C@@H]1c4c(cc(OC)c(O)c4Oc4ccc(cc4)C[C@@H]3N(C)CC2)CC[N+]1(C)C [tubocurarine] | 0.9 | –
